Assay results published in patent US20160193251A1, “METHOD FOR TREATING ALS VIA THE INCREASED PRODUCTION OF FACTOR H” (BioViva USA Inc., priority 2013, published 2016).

Experiments:
stem cells from fat = assay: Reprogramming of harvested adipose stem cells by drug treatment; assay type: cell-based; settings: harvested stem cells treated with the drug
Description: Embodiments of the present invention include performing adult adipose derived stem cell therapy to treat patients with ALS. Amyelotrophic Lateral Sclerosis (ALS) is a fatal disease with no treatment options. Since ALS is a neurological disorder, it was believed that patients would need neural stem cells, not the mesenchymal type stem cells that we have obtained from harvested adipose tissue. But, because neural stem cells are difficult to attain for various physiological and regulatory reasons, a new technical approach that targets the conversion or reprogramming of mesenchymal type stem cells that are obtained from adipose tissue recovered from the same patient to be treated has been generated.
An examplary stem cell therapy involves the use of adipose derived stem cells, which are then incubated with Selegeline, which results in preinduction into motor neurons. Initially, adipose tissue or fat is harvested via a minimally invasive liposuction. Then the fat is processed to separate the vascular stromal fraction of stem cells. […] Once processed, the majority of stem cells are administered into the spine (spinal fluid) via a lumbar puncture. A small dilute fraction of cells are injected into a select muscle group. […] The techniques allowing for culturing of stem cells and the reintroduction will help increase stem cell numbers. […]

ALS mouse model = settings: cited from earlier work
SOD1 rats = settings: ex vivo gene delivery within muscles, midstages of the disease; cited from earlier work
[1] = previous studies; cited from earlier work

In the case of `C#CCN(C)[C@H](C)Cc1ccccc1` [Selegeline], the “reprogramming of stem cells” value (stem cells from fat) is reported as “able to reprogram the stem cells from fat into neural like cells”.

For IGF-1: Insulin like growth factor 1, the progression (ALS mouse model) is given as “delayed progression” and the survival (ALS mouse model) is given as “increased survival”.

B1: GDNF: Glial derived neurotrophic factor; in b58 given by ex vivo gene delivery within muscles (protein, UniProt P39905 78-211, looked up)
Glial cell line-derived …: SPDKQMAVLPRRERNRQAAAANPENSRGKGRRGQRGKNRGCVLTAIHLNVTDLGLGYETKEELIFRYCSGSCDAAETTYDKILKNLSRNRRLVSDKVGQACCRPIAFDDDLSFLDDNLVYHILRKHSAKRCGCI
For B1, the “number of neuromuscular connections and motor neuron cell bodies” value (ALS mouse model) is given as “increased the number of neuromuscular connections and motor neuron cell bodies” and the “number of neuromuscular connections and MN cell bodies” value (SOD1 rats) is given as “significantly increased the number of neuromuscular connections”.

B2: CNTF: a neurotrophic factor that is protective of neurons (protein, UniProt P26441 1-200, looked up)
Ciliary neurotrophic factor: MAFTEHSPLTPHRRDLCSRSIWLARKIRSDLTALTESYVKHQGLNKNINLDSADGMPVASTDQWSELTEAERLQENLQAYRTFHVLLARLLEDQQVHFTPTEGDFHQAIHTLLLQVAAFAYQIEELMILLEYKIPRNEADGMPINVGDGGLFEKKLWGLKVLQELSQWTVRSIHDLRFISSHQTGIPARGSHYIANNKKM
For B2, the half life [1] is listed as 2.9 min.
